One compound from US20140065237A1, “BIOLOGICALLY ACTIVE FOOD ADDITIVE FOR THE PROPHYLAXIS OF ERECTILE DYSFUNCTION IN MEN” (priority 2011, published 2014) can be followed below.

The assay has as its system men with the diagnosis of erectile dysfunction and chronic prostatitis. Put plainly: Clinical study of the BAA versus its single components (IIEF questionnaire, patient diaries), medical center "Secrets of Longevity". It is filed as in vivo, human. Particulars: 2 tablets twice a day. As to the method: For the prevention of erectile dysfunction, the BAA in compound of L-Arginine—250 mg, drone brood—50 mg is taken by 2 tablets two times per day during one month out of meals. An interval during the intake is one month. […] The study included […] with the diagnosis of erectile dysfunction and chronic prostatitis, at the age from 30 to 50 years old (average age is 43). The duration of erectile dysfunction was from 6 months to 3 years (average duration is one year). A consent was received from all males participated in the study.
The experimental group (10 patients) was appointed to the proposed agent by 2 tablets twice a day in the morning hours. The 1-st experimental group (10 patients) was administered L-Arginine—250 mg, 2 tablets 2 times per day in the morning hours.
The 2-nd experimental group (10 patients) was administered drone brood—50 mg, 2 tablets 2 times per day in the morning hours. Patients' examination involved the checkup, collection of complains in accordance with the symptoms scale 1P88, and questionnaire of International Index of Erectile Function (IIEF), with consideration of objective factors: ultrasound investigation of prostate gland, clinical blood analysis, urine test, including the results of prostate gland palpation. Patients' examination took place before and after the agent prescription.
An efficiency of the claimed agent was evaluated by the change of IIEF's exponents. Within a week, prior to and during the course of agent intake, patients were keeping a diary of disease estimation, and they recorded the frequency and degree of sexual attraction, valuation of erection, frequency of sexual intercourse and their sensations in each case.

Consider `N=C(N)NCCC[C@H](N)C(=O)O` [L-Arginine], for which the “full sexual relations provided or not” value is “not providing the full sexual relations”. For the setting “irrespective of age and extent of sexual disorder”, the “effect starts within ... after taking of the agent” value was 2 to 3 h. In addition, where the note is “10 patients per group”, the erectile function is recorded as 20%; the “feeling of orgasm, change of sensations” value is reported as 20%; the “number of ejaculations has grown up (share of cases)” value was 20%; the overall satisfaction stood at 20%. Where the note is “10 patients per group”, the “refractory period after the emission of seminal fluid has not changed (share of patients)” value came to 100%, the sexual intercourse satisfaction was found to be 20% and the “strengthening of sexual attraction (libido) recorded (share of cases)” value is reported as 100%.
